Laboratory results taken from paper PMC5862576, “Mitochondrial fission as a driver of stemness in tumor cells: mDIVI1 inhibits mitochondrial function, cell migration and cancer stem cell (CSC) signalling” (Oncotarget, 2018).

Tests used:
MCF7 cells [1] = assay: Total ROS (CM-H2DCFDA, flow cytometry); assay type: cell-based, Human; conditions: 24, 48 hours or 5 days
Experimental: For both assays, 2 × 10^5 MCF7 cells were seeded in 35 mm plates. When cells were attached, either vehicle or mDIVI1 were added to the cells for 24, 48 hours or 5 days in triplicate. Reactive oxygen species (ROS) production was measured using CM-H2DCFDA (C6827, Invitrogen). Briefly, cells were incubated for 20 minutes at 37° C with 1 µM CM-H2DCFDA diluted in PBS and then placed in complete media for 20 minutes at 37° C in the dark, to render the dye fluorescent, according to the manufacturer. Mitochondrial superoxide was measured using MitoSOX Red Mitochondrial Superoxide Indicator (M36008, ThermoFisher Scientific). Briefly, cells were incubated for 10 minutes at 37° C in the dark with 5 µM MitoSOX diluted in PBS, according to the manufacturer. ROS signal and MitoSOX signal was quantified as mean fluorescent intensity of the viable cell population in a Fortessa flow cytometer (BD Bioscience). Results were analysed using FlowJo software.

MCF7 cells [2] = assay: PrestoBlue viability assay; assay type: cell-based, Human
Experimental: Cell viability was measured using the resazurin-based PrestoBlue reagent (A-13261, ThermoFisher Scientific). Briefly, 5 × 10^3 MCF7 cells were seeded into 96-well black plates. When cells were attached mDIVI1 or vehicle were added to the cells. After 2 or 5 days, PrestoBlue reagent was added to the cells and incubated for 2 hours. Plates were finally read using a FluoStar Omega plate reader (BMG Labtech) at an excitation wavelength of 544 and an emission wavelength of 590 nm. Background measurements were subtracted from all values.

A375 melanoma = assay: Tumorsphere formation assay, A375; assay type: cell-based; conditions: five days
Experimental: (§1) A single cell suspension was prepared using enzymatic (1× Trypsin-EDTA, T3924, Sigma Aldrich), and manual disaggregation (25 gauge needle). Cells were plated at a density of 5000 cells/well in tumorsphere media (DMEM-F12/B27/EGF (20ng/ml)/Pen-Strep) in non-adherent conditions, in 6-well plates coated with (2-hydroxyethylmethacrylate) (poly-HEMA, P3932, Sigma) in the presence of mDIVI1 or vehicle. After 5 days of culture in a humidified incubator at 37° C, tumorspheres bigger than 50 μm were counted using an eye piece graticule.

E-cadherin = assay: Western blotting; assay type: cell-based, Human; conditions: MCF7 cells
Experimental: At the end of the treatment, cells in suspension were spun down and lysed and attached cells were directly lysed in RIPA lysis buffer (R0278, Sigma) containing proteinase inhibitors (05 892 970 001, Roche) and kept at 4° C for 20 minutes with rotation. Lysates were cleared by centrifugation for 10 minutes at 10,000 xg and supernatants were collected. […] Bound antibodies were detected using a horseradish peroxidase-conjugated secondary antibody (ab6789 and ab6721, Abcam) and signal was obtained using Supersignal West Pico chemiluminiscent substrate (34087, ThermoScientific). Pictures were taken in a ChemiDoc XRS with Image Lab Software (BioRad).

A549 lung cancer = assay: Tumorsphere formation assay, A549; assay type: cell-based; conditions: five days
Experimental: as §1

MCF7 cells [3] = assay: Tumorsphere formation assay, MCF7; assay type: cell-based, Human; conditions: five days, vs vehicle
Experimental: as §1

MCF7 cells [4] = assay: Extracellular flux analysis (ECAR and OCR, Seahorse XF96); assay type: cell-based, Human; conditions: 48 hours

`COc1cc(-n2c(=S)[nH]c3ccccc3c2=O)c(Cl)cc1Cl` [mDIVI1, 3-(2,4-Dichloro-5-methoxyphenyl) 2,3-dihydro 2-thioxo-4(1H) quinazolinone] was tested, and the “general oxidative stress levels (total ROS)” value (MCF7 cells [1]) was “did not change”, the “effect on MCF7 cell viability” value (MCF7 cells [2]; 10 µM, 48 hours) was “did not decrease viability” and the “reduction of MCF7 cell viability” value (MCF7 cells [2]; 10 µM, five days) was 20%. For the same compound, the “reduction of MCF7 cell viability” value (MCF7 cells [2]; 50 µM, 48 hours) was 20%, the “reduction of MCF7 cell viability” value (MCF7 cells [2]; 50 µM, five days) was “over 65%” and the “reduction of MCF7 cell viability” value (MCF7 cells [2]; 100 µM, 48 hours) was 20%. The “reduction of MCF7 cell viability” value (MCF7 cells [2]; 100 µM, five days) was 85%, the “decrease of A375 tumorsphere forming capacity” value (A375 melanoma; 10 µM) was “over 35%” and the “decrease of A375 tumorsphere forming capacity” value (A375 melanoma; 50 µM) was “over 90%”. For the same compound, the “E-cadherin expression (immunoblot)” value (E-cadherin) was “reduction in the expression”, the “decrease of A549 tumorsphere forming capacity” value (A549 lung cancer; 10 µM) was greater than 15% and the “decrease of A549 tumorsphere forming capacity” value (A549 lung cancer; 50 µM) was greater than 80%. For the same compound, the “decrease of MCF7 tumorsphere number” value (MCF7 cells [3]; 10 µM) was 50%, the “decrease of MCF7 tumorsphere number” value (MCF7 cells [3]; 50 µM) was 80% and the “decrease of MCF7 tumorsphere number” value (MCF7 cells [3]; 100 µM) was 95%. For the same compound, the “basal glycolysis (ECAR)” value (MCF7 cells [4]) was “did not have a significant effect”, the “oxygen consumption linked to ATP production” value (MCF7 cells [4]) was “significantly reduced” and the “oxygen consumption linked to basal respiration” value (MCF7 cells [4]) was “significantly reduced”. For the same compound, the spare respiratory capacity (MCF7 cells [4]; all mDIVI1 concentrations) was “slightly increased”, the OCR/ECAR ratio (MCF7 cells [4]; vs vehicle) was “decreased dose-dependently” and the “oxygen consumption linked to maximal respiration” value (MCF7 cells [4]; to a lesser extent, at higher concentrations) was “significantly reduced”. For the same compound, the “glycolytic capacity (ECAR)” value (MCF7 cells [4]; ≥10 µM) was “reduced” and the “glycolytic reserve (ECAR)” value (MCF7 cells [4]; ≥10 µM) was “reduced”.
